Reference: ChEMBL document CHEMBL1201862, “PubChem BioAssay data set” (2004)
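A five-concentration, 48-hour dose response in 96-well plates underlies each endpoint, interpolated linearly between surrounding concentrations. GI50: concentration for 50% inhibition of growth.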 Calls of active or inactive are those of the source. Cut-off read from the data, not from the text of the source: active = GI50 up to about 1.1 µM and inactive = higher.

What was measured:
Experiment in all cases: inhibition of tumour cell growth, NCI panel, 48 h
A498 = system: A498
A549 = system: A549
HCC 2998 = system: HCC 2998
IGROV-1 = system: IGROV-1
LOX IMVI = system: LOX IMVI
Malme-3M = system: Malme-3M
NCI-H460 = system: NCI-H460
NCI-H522 = system: NCI-H522
OVCAR-5 = system: OVCAR-5
OVCAR-8 = system: OVCAR-8
RPMI-8226 = system: RPMI-8226
SF-295 = system: SF-295
SNB-19 = system: SNB-19
SR = system: SR
U-251 = system: U-251
UACC-257 = system: UACC-257
UACC-62 = system: UACC-62

Measured: GI50

Cc1cc(C)nc(NS(=O)(=O)c2ccc(NC(=O)COC(=O)c3cccc4c(=O)c5ccccc5[nH]c34)cc2)n1
inactive: A498 30.3 µM | A549 > 100 µM | HCC 2998 21.1 µM | IGROV-1 43.5 µM | LOX IMVI 20.5 µM | Malme-3M 26.7 µM | NCI-H460 49 µM | NCI-H522 27.2 µM | OVCAR-5 20.7 µM | OVCAR-8 32.1 µM | RPMI-8226 35.7 µM | SF-295 33.7 µM | SNB-19 26.8 µM | SR 28.6 µM | U-251 20 µM | UACC-257 27.1 µM | UACC-62 19.5 µM

O=C(Cc1nc2ccc(C(=O)c3ccccc3)cc2nc1O)C(=O)Nc1ccc(C(F)(F)F)cc1[N+](=O)[O-]
inactive: A498 90.4 µM | A549 > 100 µM | HCC 2998 > 100 µM | IGROV-1 > 100 µM | LOX IMVI 39.4 µM | Malme-3M > 100 µM | NCI-H460 57.8 µM | NCI-H522 31.3 µM | OVCAR-5 > 100 µM | OVCAR-8 69 µM | RPMI-8226 42.5 µM | SF-295 94.2 µM | SNB-19 94.8 µM | SR 26.9 µM | U-251 > 100 µM | UACC-257 > 100 µM | UACC-62 38.9 µM

COc1ccc(C(=O)Cc2ccc(Br)cc2)cc1OC
inactive: A498 40.4 µM | A549 > 100 µM | HCC 2998 > 100 µM | IGROV-1 > 100 µM | LOX IMVI > 100 µM | Malme-3M > 100 µM | NCI-H460 > 100 µM | NCI-H522 79.3 µM | OVCAR-5 > 100 µM | OVCAR-8 > 100 µM | RPMI-8226 > 100 µM | SF-295 40 µM | SNB-19 > 100 µM | SR > 100 µM | U-251 > 100 µM | UACC-257 > 100 µM | UACC-62 > 100 µM

O=C1CCCCCCCCCCC1CN1CCCCC1 (configuration not stated)
inactive: A498 > 100 µM | A549 > 100 µM | HCC 2998 > 100 µM | IGROV-1 74.3 µM | LOX IMVI 70.6 µM | Malme-3M > 100 µM | NCI-H460 51.1 µM | NCI-H522 > 100 µM | OVCAR-5 89.7 µM | OVCAR-8 > 100 µM | RPMI-8226 > 100 µM | SF-295 46.9 µM | SNB-19 > 100 µM | SR > 100 µM | U-251 75.3 µM | UACC-257 70.6 µM | UACC-62 88.9 µM

N#COc1ccc(Oc2ccc(OC#N)cc2)cc1
inactive: A498 > 100 µM | A549 > 100 µM | HCC 2998 > 100 µM | IGROV-1 > 100 µM | LOX IMVI 19.3 µM | Malme-3M > 100 µM | NCI-H460 28.2 µM | NCI-H522 43.4 µM | OVCAR-5 > 100 µM | OVCAR-8 > 100 µM | RPMI-8226 32 µM | SF-295 98.4 µM | SNB-19 > 100 µM | SR 24.1 µM | U-251 85.7 µM | UACC-257 > 100 µM | UACC-62 47.1 µM

COc1ccc(-c2nc(Sc3c([N+](=O)[O-])ncn3C)n[nH]2)cc1
inactive: A498 10.5 µM | A549 12.4 µM | HCC 2998 8.87 µM | IGROV-1 4.12 µM | LOX IMVI 2.72 µM | Malme-3M 2.6 µM | NCI-H460 8.77 µM | NCI-H522 2.27 µM | OVCAR-5 21 µM | OVCAR-8 2.44 µM | RPMI-8226 3.66 µM | SF-295 3.33 µM | SNB-19 13 µM | SR 3.23 µM | U-251 2.25 µM | UACC-257 3.48 µM | UACC-62 3.08 µM
